Assay results reported in US20150110865A1, “CNS STIMULANT AND OPIOID RECEPTOR ANTAGONIST COMBINATION AS A NON-ADDICTIVE, NON-AVERSIVE AND SYNERGISTIC ANTI-OBESITY TREATMENT” (FLORIDA STATE UNIVERSITY RESEARCH FOUNDATION, priority 2013, published 2015).

Tests used:
C57/B6 mice = test: Conditioned place preference (CPP); format: in vivo, mouse; conditions: for time spent in drug-paired chamber, Test sessions compared to pre-conditioning sessions: FIG. 1; for CPP score compared to saline-treated group: FIG. 2; for time spent in drug-paired chamber, Test sessions compared to PC sessions: p>0.05, n=6; for CPP score compared to saline control group: p>0.05
Description: C57/B6 mice are purchased from Charles River Laboratories. Only male mice are used.
A three-chamber place preference apparatus is used. The apparatus has two equally sized (16.8×12 cm) preference chambers connected by a central chamber (7.2×12 cm), and is outfitted with sliding guillotine-style doors between each chamber. Photobeams connected to a computer system can record animal location and time spent in that location. The central chamber has a gray colored smooth floor. The preference chamber is either white with a mesh floor or black with a bar floor. The CPP procedure included three phases: Pre-conditioning, conditioning and test phases.
The pre-conditioning phase is performed on day 1 (two sessions daily, AM and PM). In each pre-conditioning session, mice are initially placed in the central gray chamber for 2 min and then allowed free access to the white and black chambers for 20 min. The time spent in each chamber is recorded.
For the next phase in the assay, the conditioning phase, the non-preferred chamber (i.e. the chamber in which less time is spent) is designated as the drug-paired chamber and the preferred chamber (i.e. the chamber in which more time was spent) is designated as the vehicle-paired chamber.
The conditioning phase is carried out on each of days 2-6. There are two conditioning sessions daily, morning session between 8 and 10 AM and afternoon session between 2 and 4 PM. There is one session each for vehicle-paired (saline as vehicle) and drug-paired (MPH as drugs) conditions on each day of the conditioning phase. The mice are administered saline or drug (i.p.) in the saline- or drug-paired sessions, respectively and placed in the central gray chamber for 2 min (to isolate injection effect to the central chamber) and then confined to the vehicle-or-drug-paired chamber, respectively for 30 min. On the first day of the conditioning phase, the mouse receive saline during the morning session and the drug in the afternoon session. The next day, the order of treatments is reversed: drug in the morning session and saline in the afternoon session. These two paradigms are alternated for the remainder of the conditioning phase. This conditioning strategy is used for all the experiments except those using naltrexone.
Saline is administered on the first day and naltrexone (or naltrexone+MPH) is administered the following day. Administrations of saline and naltrexone are alternated for each of the next 9 days (total duration of conditioning is 10 days).
During the test phase, (one session on the day after the conditioning phase) the mice are placed in the central gray chamber for 2 min and then given free access to the drug- and saline-paired chambers for 20 min. The time spent in each chamber is recorded. The difference between time spent in the drug-paired chamber during the test phase and pre-conditioning phases was calculated as the CPP score. Saline and the drugs are administered intraperitoneally. All the behavioral analyses are performed during the light phase of the light-dark cycle.
Differences between two experimental groups are analyzed for statistical significance by using Student's t-test. Treatment effects on multiple groups are tested for significance by using one-way ANOVA and the differences among the groups are tested for significance by using Dunnett's multiple comparisons test.

[1] = test system: prenatal nicotine exposure mouse model of ADHD; conditions: cited from earlier work
[2] = 0.75 mg/kg MPH administered to adult mice; cited from earlier work
μ opioid receptor (MOPR) [3] = test: MOPR activity by DAMGO-stimulated [35S]GTPγS binding in brain membranes of drug-treated mice after the CPP assay; format: in vivo, mouse; conditions: low dose MPH 0.75 mg/kg; either brain region; FIG. 4
Description: Activity of the μ opioid receptor (MOPR) is assayed by using [35S]GTPγS binding on membrane preparations. The same mice that are used in the conditioned place preference assay are used for these assays Immediately upon completion of the behavioral assay, the mice are sacrificed by cervical dislocation and the brain is dissected rapidly. The brain is frozen in liquid nitrogen and 1.0 mm slices of the brain were prepared in the coronal plane using a tissue-slicing matrix (Model 15003; Ted Pella, Redding, Calif.). Caudate-putamen and nucleus accumbens are identified in the frozen slices based on anatomical landmarks and samples from these two brain regions are collected using a tissue punch. The samples are homogenized using teflon pestle in Eppendorf tubes (10 strokes) in 300 μl of homogenization buffer containing 25 mMTris/pH 7.4, 5 mMEDTA and 0.1 mMPMSF and kept on ice. Homogenate is diluted to 2.5 ml using the homogenization buffer and centrifuged at −350,000 g for 30 min. […]
(§1) Nonspecific binding is defined by incubation in the presence of 10 μM GTPγS. […] Radioactivity on filters is determined by liquid scintillation counting. […]
Differences between two experimental groups are analyzed for statistical significance by using Student's t-test. […]

μ opioid receptor (MOPR) [4] = biological target: T1, μ opioid receptor (MOPR) (Mus musculus, UniProt P42866); format: biochemical; design: dose or concentration left out as unconfirmed; conditions: caudate-putamen membranes; FIG. 3
T1 construct: Caudate-putamen and nucleus accumbens are identified in the frozen slices based on anatomical landmarks and samples from these two brain regions are collected; from tissue; host or cells: mouse brain: caudate-putamen and nucleus accumbens membrane preparations
T1 sequence (P42866 whole entry): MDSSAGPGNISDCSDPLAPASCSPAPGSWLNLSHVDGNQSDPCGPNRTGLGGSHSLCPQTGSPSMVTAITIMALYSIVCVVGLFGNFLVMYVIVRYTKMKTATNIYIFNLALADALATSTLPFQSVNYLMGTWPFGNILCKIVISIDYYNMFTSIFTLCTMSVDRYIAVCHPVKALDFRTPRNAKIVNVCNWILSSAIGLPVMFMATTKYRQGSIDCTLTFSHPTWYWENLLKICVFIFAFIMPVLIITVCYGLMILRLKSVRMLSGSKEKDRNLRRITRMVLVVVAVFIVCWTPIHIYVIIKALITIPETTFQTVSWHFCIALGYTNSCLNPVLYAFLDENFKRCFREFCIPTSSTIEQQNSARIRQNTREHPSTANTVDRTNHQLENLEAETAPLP
Description: Activity of the μ opioid receptor (MOPR) is assayed by using [35S]GTPγS binding on membrane preparations. The same mice that are used in the conditioned place preference assay are used for these assays Immediately upon completion of the behavioral assay, the mice are sacrificed by cervical dislocation and the brain is dissected rapidly. The brain is frozen in liquid nitrogen and 1.0 mm slices of the brain were prepared in the coronal plane using a tissue-slicing matrix (Model 15003; Ted Pella, Redding, Calif.). Caudate-putamen and nucleus accumbens are identified in the frozen slices based on anatomical landmarks and samples from these two brain regions are collected using a tissue punch. The samples are homogenized using teflon pestle in Eppendorf tubes (10 strokes) in 300 μl of homogenization buffer containing 25 mMTris/pH 7.4, 5 mMEDTA and 0.1 mMPMSF and kept on ice. Homogenate is diluted to 2.5 ml using the homogenization buffer and centrifuged at −350,000 g for 30 min. After washing 3 times with 50 mM Tris-HCl/pH 7.4, the pellets are re-suspended in 50 mM Tris-HCl/pH 7.4 containing 0.32 M sucrose, passed through a 26.5 G needle 3 times, frozen in dry ice/ethanol and stored in −80° C. until use.
as §1

[5] = naltrexone 5 mg/kg prior to MPH 7.5 mg/kg, FIG. 6
[6] = naltrexone 10 mg/kg prior to MPH 7.5 mg/kg, FIG. 6

COC(=O)C(c1ccccc1)C1CCCCN1 (centres unmarked) [MPH, methylphenidate]
time spent in drug-paired chamber, Test sessions compared to pre-conditioning sessions (C57/B6 mice; high-dose MPH 7.5 mg/kg i.p., t-test p=0.005, n=6/group): significantly longer period of time in the drug-paired chamber | time spent in drug-paired chamber, Test sessions compared to pre-conditioning (PC) sessions (C57/B6 mice; high-dose MPH 7.5 mg/kg plus saline, naltrexone experiment, FIG. 5): significantly longer period of time in the drug-paired chamber | CPP score compared to saline-treated group (C57/B6 mice; high-dose MPH 7.5 mg/kg, multiple comparisons test): significant (p<0.05) effects | CPP score compared to saline control (C57/B6 mice; high-dose MPH 7.5 mg/kg, naltrexone experiment, p<0.01, FIG. 6): significantly greater than that produced by the saline control | time spent in drug-paired chamber, Test sessions compared to pre-conditioning sessions (C57/B6 mice; low dose MPH 0.75 mg/kg i.p., t-test p>0.05): do not show significant differences | CPP score compared to saline-treated group (C57/B6 mice; low dose MPH 0.75 mg/kg): no significant difference | effect on hyperactivity ([1]; 0.75 mg/kg methylphenidate): reduce hyperactivity | time after administration at which hyperactivity started to decline ([1]; ADHD mouse model): 2 h | serum and brain concentrations of D-methylphenidate [2]: equivalent to the levels seen in human subjects given oral therapeutic doses of MPH | MOPR activity compared to the saline group (μ opioid receptor (MOPR) [3]): no significant difference

O=C1CC[C@@]2(O)[C@H]3Cc4ccc(O)c5c4[C@@]2(CCN3CC2CC2)[C@H]1O5 [naltrexone]
time spent in drug-paired chamber, Test sessions compared to PC sessions (C57/B6 mice; naltrexone 1 mg/kg alone, FIG. 5): Neither saline alone nor naltrexone (1 or 10 mg/kg) alone produces significant changes | CPP score compared to prior treatment with saline (C57/B6 mice; naltrexone 1 mg/kg prior to MPH 7.5 mg/kg, FIG. 6): significantly decrease the CPP score | CPP score compared to prior treatment with saline (C57/B6 mice; [5]): significantly decrease the CPP score | CPP score compared to saline control group (C57/B6 mice; [5]): not significantly different | abuse potential of methylphenidate (C57/B6 mice; naltrexone 10 mg/kg administered with 7.5 mg/kg methylphenidate): completely abolishes the abuse potential of methylphenidate | time spent in drug-paired chamber, Test sessions compared to PC sessions (C57/B6 mice; naltrexone 10 mg/kg alone, FIG. 5): Neither saline alone nor naltrexone (1 or 10 mg/kg) alone produces significant changes | CPP score compared to prior treatment with saline (C57/B6 mice; [6]): significantly decrease the CPP score | CPP score compared to saline control group (C57/B6 mice; [6]): not significantly different | dose dependence of the decrease in the CPP score (C57/B6 mice; naltrexone 1, 5 or 10 mg/kg prior to MPH 7.5 mg/kg, FIG. 6): dose-dependent

C[C@@H](NC(=O)[C@@H](N)Cc1ccc(O)cc1)C(=O)NCC(=O)N(C)[C@@H](Cc1ccccc1)C(=O)NCCO [DAMGO]
maximal [35S]GTPγS binding (μ opioid receptor (MOPR) [4]): 1.75 fold of the basal level
